One may read the MIC as the least concentration at which growth counts as inhibited.

This note sets out measurements from US10865216B2, “Tricyclic Gyrase inhibitors” (MERCK SHARP & DOHME CORP., priority 2012, dated 2020).

The test system of one assay is S. aureus ATCC 13709. Put plainly: MIC, S. aureus ATCC 13709. The class given is cell-based. As to conditions: for MIC: Staphylococcus aureus.
In the next assay the test system is E. coli ATCC 25922. Nature of the assay: MIC, E. coli ATCC 25922. As to conditions: for MIC: Escherichia coli. The class given is cell-based.
Where [1] appears, read: S. aureus, Alamar Blue read after overnight incubation at 35° C.
The mark [2] stands for this setting: E. coli, Alamar Blue read after overnight incubation at 35° C.
Where [3] appears, read: ATCC13709, S. aureus, Alamar Blue read after overnight incubation at 35° C., read-out: MIC Sa.
The mark [4] stands for this setting: ATCC25922, E. coli, Alamar Blue read after overnight incubation at 35° C., read-out: MIC Ec.
Where [5] appears, read: ATCC13709, Table 16, new R4 substituents, read-out: SA MIC.
[6] abbreviates: ATCC25922, Table 16, new R4 substituents, EC8 not defined, read-out: EC8 MIC.

Converted amounts (≈) assume the structure as drawn. Like-named read-outs stand apart in the source and are kept apart here. Bounds are passed on as bounds.

For the compound `CNc1cc(F)cc2c1[nH]c1nc(Oc3cnc(C4CC4)nc3)nc(N3CC4CC(N)C4C3)c12` (stereo not shown) [Compound 4.240], in the assay on S. aureus ATCC 13709 (setting [1]), the “MIC Sa” value is at most 0.5 µg/mL. In addition, the “MIC Ec” value against E. coli ATCC 25922 (setting [2]) is at most 0.5 µg/mL.
For the compound `CNc1cc(F)cc2c1[nH]c1nc(Oc3cnc(NC4CC4)nc3)nc(N3CC4C(N)C4C3)c12` (stereo not shown) [Compound 4.223], the “MIC Sa” value against S. aureus ATCC 13709 (setting [1]) is at most 0.5 µg/mL. In the assay on E. coli ATCC 25922 (setting [2]), the “MIC Ec” value is at most 0.5 µg/mL.
`CNc1cc(F)c(Cl)c2c1[nH]c1nc(Oc3cnc([C@@H](C)O)nc3)nc(N3C[C@H]4C[C@@H]3C[C@H]4N)c12` [Compound 10.87]: the MIC Sa against S. aureus ATCC 13709 (Table 18, Sa) was at most 0.5 µg/mL. Further, the MIC Ec in the assay on E. coli ATCC 25922 (Table 18, Ec) was at most 0.5 µg/mL.
Take `CNc1cc(F)cc2c1[nH]c1nc(Oc3cnc(C#N)c(C)c3)nc(N3CC4CC(N)C4C3)c12` (stereo not shown) [Compound 4.325]: the “MIC Sa” value with S. aureus ATCC 13709 (setting [1]) was at most 0.5 µg/mL. For the same compound, the “MIC Ec” value in the assay on E. coli ATCC 25922 (setting [2]) is at most 0.5 µg/mL.
As for `CNc1cc(F)cc2c1[nH]c1nc(Nc3cnc(C)nc3)nc(N3C[C@H]4C[C@@H]3C[C@H]4N)c12` [Compound 10.41], in the assay with S. aureus ATCC 13709 (Table 18, Sa), the MIC Sa was at most 0.5 µg/mL. The MIC Ec against E. coli ATCC 25922 (Table 18, Ec) was at most 0.5 µg/mL.
Take `CNc1cc(F)cc2c1[nH]c1nc(Cc3cnc(C)nc3)nc(N3CC[C@@]4(C[C@H]4N)C3)c12`: the SA MIC in the assay with S. aureus ATCC 13709 (Table 11, compounds wherein L = CH2) was at most 0.5 µg/mL. The EC8 MIC in the assay with E. coli ATCC 25922 (Table 11, L = CH2, EC8 not defined) stood at 2 µg/mL.
As to `CNc1cc(F)cc2c1[nH]c1nc(Oc3cncnc3)nc(N3CCC4(CCNC4)C3)c12` (stereo not shown) [Compound 4.033], the “MIC Sa” value against S. aureus ATCC 13709 (setting [1]) is at most 0.5 µg/mL. Besides, the “MIC Ec” value against E. coli ATCC 25922 (setting [2]) worked out at 4 µg/mL (≈ 9.21 µM).
The like results for `CNc1cc(F)cc2c1[nH]c1nc(Oc3cncc(-c4cn[nH]c4)c3)nc(N3CC4C(N)C4C3)c12` (stereo not shown) [Compound 4.206] were, in that order, at most 0.5 µg/mL and 4 µg/mL (≈ 8.48 µM).
`CNc1cc(F)cc2c1[nH]c1nc(Oc3cnc4cc(C5CC5)nn4c3)nc(N3C[C@H]4C[C@@H]3C[C@H]4N)c12` [Compound 10.36] showed an MIC Sa in the assay with S. aureus ATCC 13709 (Table 18, Sa) of at most 0.5 µg/mL. The compound further came in with an MIC Ec against E. coli ATCC 25922 (Table 18, Ec) of at most 0.5 µg/mL.
Take `CNc1cccc2c1[nH]c1nc(Oc3cncc(C#N)c3)cc(N3CCN(CCN4CCOCC4)CC3)c12` [Compound 3.59]: the MIC was 4 µg/mL (≈ 7.8 µM) in the assay on S. aureus ATCC 13709 (setting [3]) and above 64 µg/mL in the assay with E. coli ATCC 25922 (setting [4]).
Taken in the same sequence, the figures for `CNc1cccc2c1[nH]c1nc(Sc3cncc(S(N)(=O)=O)c3)nc(N3CC4C(N)C4C3)c12` (stereo not shown) [Compound 1.41] were 4 µg/mL (≈ 8.29 µM) and 8 µg/mL (≈ 16.6 µM).
Regarding `CNc1cc(F)cc2c1[nH]c1nc(Oc3cnc(C)nc3)nc(N3CC(N)C(C(=O)OC)C3)c12` (stereo not shown) [drawing 1825], the MIC with S. aureus ATCC 13709 (setting [5]) is at most 0.5 µg/mL; with E. coli ATCC 25922 (setting [6]), 1 µg/mL (≈ 2.14 µM).
The like results for `CNc1cc(F)cc2c1[nH]c1nc(Oc3cnc(C)nc3)nc(N3CCCC3=O)c12` were, in that order, 1 µg/mL (≈ 2.45 µM) and above 16 µg/mL.
With `CNc1cc(F)c(F)c2c1[nH]c1nc(Oc3cnc(C(C)O)nc3)nc(N3CCC4(CCCC4N)C3)c12` (stereo not shown) [Compound 10.112], in the assay on S. aureus ATCC 13709 (Table 18, Sa), the MIC Sa is at most 0.5 µg/mL. This compound also came in with an MIC Ec against E. coli ATCC 25922 (Table 18, Ec) of at most 0.5 µg/mL.
As for `Nc1cccc2c1[nH]c1nc(Oc3cnc4cccnc4c3)nc(N3CC4C(N)C4C3)c12` (stereo not shown) [Compound 2.8], the “MIC Sa” value against S. aureus ATCC 13709 (setting [1]) turned out to be 16 µg/mL (≈ 37.7 µM). The “MIC Ec” value in the assay with E. coli ATCC 25922 (setting [2]) was above 64 µg/mL.
The like results for `CNc1cc(F)cc2c1[nH]c1nc(Oc3cnc(C)nc3)nc(N3CC(N)C4(CC4)C3)c12` (stereo not shown) [Compound 4.065] were, in that order, at most 0.5 µg/mL and at most 0.5 µg/mL.
In the case of `CNc1cccc2c1[nH]c1nc(Sc3cncc(S(=O)(=O)NCCO)c3)nc(N3CC4C(N)C4C3)c12` (stereo not shown) [Compound 1.42], the MIC with S. aureus ATCC 13709 (setting [3]) came to 8 µg/mL (≈ 15.2 µM); with E. coli ATCC 25922 (setting [4]), 32 µg/mL (≈ 60.8 µM).
As to `CNc1cccc2c1[nH]c1nc(Sc3cnc4ccc[n+]([O-])c4c3)nc(N3CC4C(C3)C4NC(=O)[C@H](C)N)c12` (stereo partly shown) [Compound 1.52], the results for the MIC with S. aureus ATCC 13709 (setting [3]) and in the assay on E. coli ATCC 25922 (setting [4]) were 1 µg/mL (≈ 1.85 µM) and 16 µg/mL (≈ 29.5 µM), respectively.
Turning to `CNc1cccc2c1[nH]c1nc(Oc3cnc(N4CCOCC4)nc3)cc(N3CC4C(N)C4C3)c12` (stereo not shown) [Compound 3.26], the MIC in the assay on S. aureus ATCC 13709 (setting [3]) and with E. coli ATCC 25922 (setting [4]) was above 16 µg/mL each time.
Take `CNNc1cc(F)cc2c1[nH]c1nc(Oc3cnc(C)nc3)nc(N3CC4C(N)C4C3)c12` (stereo not shown) [Compound 2.1]: the “MIC Sa” value in the assay with S. aureus ATCC 13709 (setting [1]) is at most 0.5 µg/mL. Further, the “MIC Ec” value in the assay with E. coli ATCC 25922 (setting [2]) is above 16 µg/mL.
